Measured values: patent US20230027361A1, “METTL3 MODULATORS” (priority 2019, published 2023)
Like-named read-outs stand apart in the source and are kept apart here.

Tests used:
METTL3/METTL14 = METTL3/METTL14 (Homo sapiens, UniProt Q86U44); assay: METTL3-14 Standard Enzyme Assay (METTL3 biochemical assay)
Description: Assays were performed in a 25 μl-volume in 384-well V-bottom polypropylene microplates (Greiner Bio-One, cat. No. 781280) at ambient temperature. Optimized 1× assay buffer was 20 mM HEPES pH 7.5, 50 mM KCl, 250 μM MgCl2, 1 mM DTT, 0.01% Tween, 0.01% BSG, 0.004 U/μl RNAseOUT (cat. No. 10777019, ThermoFisher Scientific, Waltham, Mass.). For compound screening METTL3/METTL14 (final concentration, f.c.=2.5 nM) was added using a Multidrop Combi (ThermoFisher Scientific, Waltham, Mass.) and preincubated for 5 min. Reactions were started by adding 3′ biotinylated RNA ([…]-biotin) (f.c.=100 nM) and 3H-SAM (f.c.=100 nM) substrates. Reactions proceeded for 30 minutes and were quenched with excess non-radioactive SAM (f.c.=15 μM). The reactions were then transferred to streptavidin-coated flashplates and incubated for 2 hours at 25° C. Following two washing cycles with 0.1% Tween-20, the plates were sealed and read on a TopCount (PerkinElmer, Waltham, Mass.) plate-based scintillation counter. For determination of kinetic parameters, reaction times were optimized so that measurements were taken during the initial velocity phase of the reaction.

METTL1/WDR4 = METTL1/WDR4 (Homo sapiens, UniProt Q9UBP6); assay: METTL1 Assay (METTL1 biochemical assay)
Description: Assays were performed in a 25 μl-volume in 384-well V-bottom polypropylene microplates (Greiner Bio-One, cat. No. 781280) at ambient temperature. Optimized 1× assay buffer was 20 mM HEPES pH 7.5, 50 mM KCl, 250 μM MgCl2, 1 mM DTT, 0.01% Tween, 0.01% BSG, 0.004 U/μl RNAseOUT (cat. No. 10777019, ThermoFisher Scientific, Waltham, Mass.). For compound screening METTL1/WDR4 (final concentration, f.c.=6.25 nM) was added using a Multidrop Combi (ThermoFisher Scientific, Waltham, Mass.) and preincubated for 5 min. Reactions were started by adding 3′ biotinylated RNA ([…]-biotin) (f.c.=25 nM) and 3H-SAM (f.c.=60 nM) substrates. Reactions proceeded for 20 minutes and were quenched with excess non-radioactive SAM (f.c.=15 μM). The reactions were then transferred to streptavidin-coated flashplates and incubated for 2 hours at 25° C. Following two washing cycles with 0.1% Tween-20, the plates were sealed and read on a TopCount (PerkinElmer, Waltham, Mass.) plate-based scintillation counter. For determination of kinetic parameters, reaction times were optimized so that measurements were taken during the initial velocity phase of the reaction.

PRMT5-MEP50 = PRMT5-MEP50 (Homo sapiens, UniProt O14744); assay: PRMT5 Assay (PRMT5 biochemical assay)
Description: Assays were performed in a 25 μl-volume in 384-well V-bottom polypropylene microplates (Greiner Bio-One, cat. No. 781280) at ambient temperature. Optimized 1× assay buffer was 20 mM Tris-HCl pH 8.0, 1 mM DTT, […]. For compound screening PRMT5-MEP50 (final concentration, f.c.=2.5 nM) was added using a Multidrop Combi (ThermoFisher Scientific, Waltham, Mass.) and preincubated for 5 min. Reactions were started by adding 3′ biotinylated histone H4 peptide acetylated on serine 1 (Ac-[…]-Biotin) (f.c.=100 nM) and 3H-SAM (f.c.=250 nM) substrates. Reactions proceeded for 60 minutes and were quenched with excess non-radioactive SAM (f.c.=15 μM). The reactions were then transferred to streptavidin-coated flashplates and incubated for 2 hours at 25° C. Following two washing cycles with 0.1% Tween-20, the plates were sealed and read on a TopCount (PerkinElmer, Waltham, Mass.) plate-based scintillation counter. For determination of kinetic parameters, reaction times were optimized so that measurements were taken during the initial velocity phase of the reaction.

[1] = METTL3 biochemical assay; read-out: METTL3 IC50
[2] = read-out: METTL1 IC50; METTL1 biochemical assay
[3] = PRMT5 biochemical assay; read-out: PRMT5 IC50
[4] = read-out: METTL3 IC50; METTL3 biochemical assay
[5] = METTL1 biochemical assay; read-out: METTL1 IC50
[6] = read-out: PRMT5 IC50; PRMT5 biochemical assay

METTL1/WDR4, sequence (Q9UBP6 whole entry, species assumed): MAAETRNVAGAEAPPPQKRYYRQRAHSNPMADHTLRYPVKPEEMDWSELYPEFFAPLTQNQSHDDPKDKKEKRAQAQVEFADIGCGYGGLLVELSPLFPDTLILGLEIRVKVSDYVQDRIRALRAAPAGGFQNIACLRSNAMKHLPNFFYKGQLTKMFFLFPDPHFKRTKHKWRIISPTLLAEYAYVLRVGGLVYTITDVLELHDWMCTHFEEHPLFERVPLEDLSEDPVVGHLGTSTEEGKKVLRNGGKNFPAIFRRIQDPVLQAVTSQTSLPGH
METTL1/WDR4, sequence (P57081 whole entry partner, species assumed): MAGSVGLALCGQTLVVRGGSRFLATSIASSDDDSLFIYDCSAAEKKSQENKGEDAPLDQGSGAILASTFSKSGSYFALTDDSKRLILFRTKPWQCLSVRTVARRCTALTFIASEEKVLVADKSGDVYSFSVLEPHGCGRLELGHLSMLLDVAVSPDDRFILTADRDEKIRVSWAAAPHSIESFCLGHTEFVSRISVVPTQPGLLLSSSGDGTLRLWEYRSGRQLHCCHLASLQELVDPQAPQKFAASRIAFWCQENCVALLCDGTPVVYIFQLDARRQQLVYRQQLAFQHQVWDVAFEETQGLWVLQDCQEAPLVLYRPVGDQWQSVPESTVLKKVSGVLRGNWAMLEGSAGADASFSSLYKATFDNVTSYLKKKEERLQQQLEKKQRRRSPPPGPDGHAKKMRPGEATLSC
PRMT5-MEP50, sequence (O14744 whole entry): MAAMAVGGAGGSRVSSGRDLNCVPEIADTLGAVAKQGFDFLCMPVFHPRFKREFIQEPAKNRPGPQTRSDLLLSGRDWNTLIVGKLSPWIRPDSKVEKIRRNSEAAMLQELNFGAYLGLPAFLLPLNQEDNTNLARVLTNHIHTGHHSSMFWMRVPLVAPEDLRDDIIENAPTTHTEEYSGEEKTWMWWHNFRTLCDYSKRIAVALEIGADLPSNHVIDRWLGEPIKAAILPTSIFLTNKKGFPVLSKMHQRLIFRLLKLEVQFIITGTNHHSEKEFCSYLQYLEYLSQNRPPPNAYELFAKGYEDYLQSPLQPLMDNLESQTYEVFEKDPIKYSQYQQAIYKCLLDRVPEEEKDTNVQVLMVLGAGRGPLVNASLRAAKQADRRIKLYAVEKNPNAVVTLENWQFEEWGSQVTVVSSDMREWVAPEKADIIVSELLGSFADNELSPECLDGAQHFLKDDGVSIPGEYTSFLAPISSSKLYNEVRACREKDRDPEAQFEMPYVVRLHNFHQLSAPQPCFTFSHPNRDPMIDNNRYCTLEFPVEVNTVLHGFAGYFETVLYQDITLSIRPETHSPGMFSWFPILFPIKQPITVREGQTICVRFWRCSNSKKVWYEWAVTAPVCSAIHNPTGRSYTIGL
PRMT5-MEP50, sequence (Q9BQA1 whole entry partner): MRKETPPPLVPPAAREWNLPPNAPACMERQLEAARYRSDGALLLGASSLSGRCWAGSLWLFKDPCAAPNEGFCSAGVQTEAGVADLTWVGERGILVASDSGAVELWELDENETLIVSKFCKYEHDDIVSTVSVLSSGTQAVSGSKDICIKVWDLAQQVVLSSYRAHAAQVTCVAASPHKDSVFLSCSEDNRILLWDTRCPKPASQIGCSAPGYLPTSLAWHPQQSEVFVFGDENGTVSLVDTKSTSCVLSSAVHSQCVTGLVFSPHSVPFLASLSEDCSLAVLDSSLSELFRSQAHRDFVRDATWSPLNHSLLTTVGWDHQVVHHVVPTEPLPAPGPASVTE
METTL3/METTL14, sequence (Q86U44 whole entry, species assumed): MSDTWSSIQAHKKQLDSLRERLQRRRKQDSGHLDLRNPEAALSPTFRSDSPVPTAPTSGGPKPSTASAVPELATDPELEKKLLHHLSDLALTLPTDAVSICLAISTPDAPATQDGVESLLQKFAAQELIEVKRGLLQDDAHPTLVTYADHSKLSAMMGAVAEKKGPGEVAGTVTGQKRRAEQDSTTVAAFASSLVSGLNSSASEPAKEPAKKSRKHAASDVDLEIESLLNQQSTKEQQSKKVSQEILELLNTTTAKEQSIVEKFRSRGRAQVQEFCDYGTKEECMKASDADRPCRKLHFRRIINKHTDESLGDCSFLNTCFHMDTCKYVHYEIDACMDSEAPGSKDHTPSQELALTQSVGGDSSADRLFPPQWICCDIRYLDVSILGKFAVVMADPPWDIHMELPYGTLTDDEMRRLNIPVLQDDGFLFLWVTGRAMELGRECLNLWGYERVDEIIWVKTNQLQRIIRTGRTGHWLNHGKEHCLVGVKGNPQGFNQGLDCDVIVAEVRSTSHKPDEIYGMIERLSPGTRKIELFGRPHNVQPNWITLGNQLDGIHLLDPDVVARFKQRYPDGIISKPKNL
METTL3/METTL14, sequence (Q9HCE5 whole entry partner, species assumed): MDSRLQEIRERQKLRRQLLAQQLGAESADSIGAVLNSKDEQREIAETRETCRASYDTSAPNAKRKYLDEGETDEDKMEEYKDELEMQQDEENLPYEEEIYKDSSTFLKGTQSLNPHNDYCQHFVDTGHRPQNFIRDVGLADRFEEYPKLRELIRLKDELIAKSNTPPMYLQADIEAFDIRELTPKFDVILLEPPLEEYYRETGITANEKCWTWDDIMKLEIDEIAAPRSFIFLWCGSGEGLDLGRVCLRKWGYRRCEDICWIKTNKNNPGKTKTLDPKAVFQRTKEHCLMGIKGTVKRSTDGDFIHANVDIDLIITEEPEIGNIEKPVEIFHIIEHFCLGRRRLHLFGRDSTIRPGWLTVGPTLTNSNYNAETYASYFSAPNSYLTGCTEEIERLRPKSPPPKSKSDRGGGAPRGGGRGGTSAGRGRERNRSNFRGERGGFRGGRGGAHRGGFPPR

| Compound | IC50 (METTL3/METTL14; [1]) | IC50 (METTL1/WDR4; [2]) | IC50 (PRMT5-MEP50; [3]) | IC50 (METTL3/METTL14; [4]) | IC50 (METTL1/WDR4; [5]) | IC50 (PRMT5-MEP50; [6]) |
| --- | --- | --- | --- | --- | --- | --- |
| Nc1ncnc2c1ccn2[C@@H]1C[C@H](CCc2ccc3scnc3c2)[C@@H](O)[C@H]1O [I-104] | > 1000 nM | > 1000 nM | < 10 nM |  |  |  |
| Nc1ncnc2c1ccn2[C@@H]1C[C@H](CCc2ccc3[nH]ccc3c2)[C@@H](O)[C@H]1O [I-92] | > 1000 nM | > 1000 nM | 100 to 1000 nM |  |  |  |
| Nc1ccc2ccc(CC[C@H]3C[C@@H](n4cc([C@@H]5CCOC5)c5c(N)ncnc54)[C@H](O)[C@@H]3O)cc2n1 [I-49] | 100 to 1000 nM | > 1000 nM | < 10 nM |  |  |  |
| Nc1ncnc2c1ccn2[C@@H]1C[C@H](CCc2ccc3cc[nH]c3c2)[C@@H](O)[C@H]1O [I-101] | > 1000 nM | > 1000 nM | 100 to 1000 nM |  |  |  |
| Nc1ncnc2c1ccn2[C@@H]1C[C@H](CCc2ccc3[nH]c(=O)[nH]c3c2)[C@@H](O)[C@H]1O [I-93] | > 1000 nM | > 1000 nM | 10 to 100 nM |  |  |  |
| CNc1ccc2cc(CC[C@H]3C[C@@H](n4cc(C)c5c(N)ncnc54)[C@H](O)[C@@H]3O)ccc2n1 [I-64] | 100 to 1000 nM | > 1000 nM | 10 to 100 nM |  |  |  |
| Nc1ccc2ccc(OC[C@H]3O[C@H](n4ccc5c(N)ncnc54)[C@H](O)[C@@H]3O)cc2n1 [I-79] | > 1000 nM | > 1000 nM | 100 to 1000 nM |  |  |  |
| CNC(=O)Nc1cccc(CC[C@H]2C[C@@H](n3ccc4c(N)ncnc43)[C@H](O)[C@@H]2O)c1 [I-99] | > 1000 nM | > 1000 nM | 100 to 1000 nM |  |  |  |
| CNc1ccc2ccc(OC[C@H]3O[C@@H](n4cc(C5CCC(F)(F)CC5)c5c(N)ncnc54)[C@H](O)[C@@H]3O)cc2n1 [I-4] | < 10 nM | > 1000 nM | 10 to 100 nM |  |  |  |
| Cc1cc2c(NCCc3ccccc3)ncnc2n1[C@@H]1C[C@H](CCc2ccc3ccc(N)nc3c2)[C@@H](O)[C@H]1O [I-61] | > 1000 nM | > 1000 nM | < 10 nM |  |  |  |
| CC(C)Nc1ccc2ccc(CC[C@H]3C[C@@H](n4ccc5c(N)ncnc54)[C@H](O)[C@@H]3O)cc2n1 [I-116] | 10 to 100 nM | > 1000 nM | < 10 nM |  |  |  |
| Nc1ccc2cc(CC[C@H]3C[C@@H](n4ccc5c(NCCc6ccccc6)ncnc54)[C@H](O)[C@@H]3O)ccc2n1 [I-97] | > 1000 nM | > 1000 nM | 100 to 1000 nM |  |  |  |
| CCc1cc(N)c2ccc(OC[C@H]3O[C@@H](n4cc(-c5ccn(C)n5)c5c(N)ncnc54)[C@@H](F)[C@@H]3O)cc2n1 [I-145] |  |  |  | < 10 nM | > 1000 nM | 100 to 1000 nM |
| Cc1cc2c(N)ncnc2n1[C@@H]1C[C@H](CCc2ccc3nc(N)ccc3c2)[C@@H](O)[C@H]1O [I-57] | > 1000 nM | > 1000 nM | 10 to 100 nM |  |  |  |
| CNc1ccc2ccc(OC[C@H]3O[C@@H](n4cc(-c5cc(C)n(C)n5)c5c(N)ncnc54)[C@@H](F)[C@@H]3O)cc2n1 [I-147] |  |  |  | 10 to 100 nM | > 1000 nM | > 1000 nM |
| Nc1ccc2ccc(OC[C@H]3C[C@@H](n4ccc5c(NCCc6ccccc6)ncnc54)[C@H](O)[C@@H]3O)cc2n1 [I-91] | > 1000 nM |  | < 10 nM |  | > 1000 nM |  |
| CCCNc1ncnc2c1ccn2[C@@H]1C[C@H](CCc2ccc3ccc(N)nc3c2)[C@@H](O)[C@H]1O [I-102] | > 1000 nM | > 1000 nM | < 10 nM |  |  |  |
| Cc1cn([C@@H]2C[C@H](CCc3ccc4ccc(N)nc4c3)[C@@H](O)[C@H]2O)c2ncnc(N)c12 [I-66] |  | > 1000 nM | < 10 nM |  |  |  |
| CCCNc1ccc2ccc(CC[C@H]3C[C@@H](n4ccc5c(N)ncnc54)[C@H](O)[C@@H]3O)cc2n1 [I-120] |  | > 1000 nM | < 10 nM |  |  |  |

| Compound | IC50 (METTL3/METTL14; [1]) | IC50 (METTL1/WDR4; [2]) | IC50 (PRMT5-MEP50; [3]) | IC50 (METTL3/METTL14; [4]) | IC50 (METTL1/WDR4; [5]) | IC50 (PRMT5-MEP50; [6]) |
| --- | --- | --- | --- | --- | --- | --- |
| Nc1cc2cc(CC[C@H]3C[C@@H](n4ccc5c(N)ncnc54)[C@H](O)[C@@H]3O)ccc2cn1 [I-100] | > 1000 nM | > 1000 nM | 10 to 100 nM |  |  |  |
| Cc1cc2c(N)ncnc2n1[C@@H]1C[C@H](CCc2ccc3ccc(N)nc3c2)[C@@H](O)[C@H]1O [I-65] | > 1000 nM | > 1000 nM | < 10 nM |  |  |  |
| Nc1ccc2ccc(CC[C@H]3C[C@@H](n4cc([C@H]5CCOC5)c5c(N)ncnc54)[C@H](O)[C@@H]3O)cc2n1 [I-53] | 100 to 1000 nM | > 1000 nM | < 10 nM |  |  |  |
| Nc1ncnc2c1ccn2[C@@H]1C[C@H](CCc2ccc3ccc(NCc4ccccc4)nc3c2)[C@@H](O)[C@H]1O [I-121] | 100 to 1000 nM | > 1000 nM | < 10 nM |  |  |  |
| Nc1cccc2ccc(CC[C@H]3C[C@@H](n4ccc5c(N)ncnc54)[C@H](O)[C@@H]3O)cc12 [I-110] | > 1000 nM | > 1000 nM | 100 to 1000 nM |  |  |  |
| Nc1ncnc2c1ccn2[C@@H]1C[C@H](CCc2ccc3ccc(Nc4ccccc4)nc3c2)[C@@H](O)[C@H]1O [I-122] | > 1000 nM | > 1000 nM | < 10 nM |  |  |  |
| Nc1ncnc2c1ccn2[C@@H]1C[C@H](CCc2cccnc2)[C@@H](O)[C@H]1O [I-117] | > 1000 nM | > 1000 nM | 10 to 100 nM |  |  |  |
| Nc1ccc2ccc(OC[C@H]3C[C@@H](n4ccc5c(N)ncnc54)[C@H](O)[C@@H]3O)cc2n1 [I-124] | 100 to 1000 nM | > 1000 nM | < 10 nM |  |  |  |
| CN(C[C@H]1C[C@@H](n2ccc3c(N)ncnc32)[C@H](O)[C@@H]1O)c1ccc2ccc(N)nc2c1 [I-94] | > 1000 nM | > 1000 nM | < 10 nM |  |  |  |
| Nc1ncnc2c1ccn2[C@@H]1C[C@H](CCc2cccc(=O)[nH]2)[C@@H](O)[C@H]1O [I-113] | > 1000 nM | > 1000 nM | 100 to 1000 nM |  |  |  |
| CCCC(=O)c1cn([C@@H]2O[C@H](COc3ccc4ccc(NC)nc4c3)[C@@H](O)[C@@H]2F)c2ncnc(N)c12 [I-146] |  |  |  | 10 to 100 nM | > 1000 nM | > 1000 nM |
| Nc1ncnc2c1ccn2[C@@H]1C[C@H](CCc2ccc3c(OCC4CC4)ccnc3c2)[C@@H](O)[C@H]1O [I-85] | > 1000 nM | > 1000 nM | < 10 nM |  |  |  |
| Nc1ncnc2c1ccn2[C@@H]1C[C@H](CCc2cnc3cccnc3c2)[C@@H](O)[C@H]1O [I-126] | > 1000 nM | > 1000 nM | < 10 nM |  |  |  |
| Nc1ncnc2c1ccn2[C@@H]1C[C@H](CCc2ccc3cccnc3n2)[C@@H](O)[C@H]1O [I-128] | > 1000 nM | > 1000 nM | < 10 nM |  |  |  |
| Cc1cn([C@@H]2O[C@H](COc3ccc4ccc(N)nc4c3)[C@@H](O)[C@H]2O)c2ncnc(N)c12 [I-15] | > 1000 nM | > 1000 nM | 100 to 1000 nM |  |  |  |
| Nc1ncnc2c1ccn2[C@@H]1C[C@H](CCc2ccc3ccc(NCCO)nc3c2)[C@@H](O)[C@H]1O [I-105] | 100 to 1000 nM | > 1000 nM | < 10 nM |  |  |  |
| Nc1ncnc2c1ccn2[C@@H]1C[C@H](CCc2ccc3cc(Br)cnc3c2)[C@@H](O)[C@H]1O [I-137] |  | > 1000 nM | < 10 nM |  |  |  |
| Nc1ccc2ccc(CC[C@H]3C[C@@H](n4ccc5c(NCCc6ccccc6)ncnc54)[C@H](O)[C@@H]3O)cc2n1 [I-134] |  | > 1000 nM | < 10 nM |  |  |  |
| Nc1ncnc2c1ccn2[C@@H]1C[C@H](CCc2ccc3ccncc3c2)[C@@H](O)[C@H]1O [I-131] |  | > 1000 nM | 10 to 100 nM |  |  |  |
